Assay results: patent US20250084039A1, “4-SUBSTITUTED AMINOISOQUINOLINE DERIVATIVES” (Purdue Research Foundation, priority 2016, published 2025)
Like-named read-outs stand apart in the source and are kept apart here. Values belong to the molecule of their own block, whether it stands above or below them.

Columns and labels:
K562 = experiment: IC50 proliferation assay (Alamar Blue, 72 h); format: cell-based
MV4-11 [1] = experiment: IC50 proliferation assay (Alamar Blue, 72 h); format: cell-based; settings: read-out: IC50 (proliferation inhibition) Cell line - MV4-11
In short: (§1)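 Cells seeded ~18 h before treatment with semi-serial compound dilutions made in DMSO then growth medium. After 72 h exposure, Alamar Blue added and read following 4 h further at 37 °C; IC50 for proliferation inhibition.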

FLT3 ITD = FLT3 ITD (Homo sapiens, UniProt P36888); experiment: DiscoverX Kd Elect binding
Excerpt: (§2) Although the current drugs on the market or in clinical trials are relatively successful in killing the AML leukemia cells, they currently are unable to deal with secondary mutations that occur after TKI treatment, such as FLT3 ([…]).

HeLa = experiment: Proliferation inhibition at single concentration (CellTiter-Blue); format: cell-based; settings: 1 μM compound
MCF-7 = experiment: as above; format: cell-based; settings: 1 μM compound
MOLM14 [2] = experiment: IC50 determination (proliferation assay, CellTiter-Blue); format: cell-based
Description: (§3) Cell lines were seeded into 96-well plates the afternoon prior to treatment. Approximately 18 hours later, compounds were diluted in dimethyl sulfoxide (DMSO) and added to cells. Plates were incubated for 72 hours and cells viability determined with CellTiter-Blue Cell Viability Assay (Promega, Madison, WI). Plates were read after 4 additional hours of incubation at 37° C. using plate reader (Bio-Tek, Winooski. VT). Data was analyzed and graphed using GraphPad Prism Software (Graphpad. La Jolla, CA). […]

MV4-11 [3] = experiment: as above; format: cell-based
Description: as §3

RET = RET (Homo sapiens (Human), UniProt P07949); experiment: Reaction Biology HotSpot kinase assay; format: biochemical; settings: 500 nM compound
In short: (§4)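 HotSpot 33P transfer format. Enzyme, substrate and 500 nM test compound sit together for 20 min, then labelled and unlabelled ATP totalling 100 μM are added and phosphorylation proceeds for 2 h at room temperature. Products are captured on P81 cellulose paper, and activity is expressed relative to DMSO.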

c-Src = c-Src (Homo sapiens (Human), UniProt P12931); experiment: Reaction Biology HotSpot kinase assay; format: biochemical; settings: 500 nM compound
In short: as §4

FGFR1 = FGFR1 (Homo sapiens (Human), UniProt P11362); experiment: Reaction Biology HotSpot kinase assay; format: biochemical; settings: 500 nM compound
In short: (§5)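 Each compound was tested at 500 nM, with 33P incorporation from ATP (100 μM final, including [γ-33P]ATP) measured by P81 paper capture after a 2 h room-temperature reaction.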

FLT3 = FLT3 (Homo sapiens (Human), UniProt P36888); experiment: DiscoverX Kd Elect binding
Excerpt: as §2
HCK is expressed more in human primary leukemic stem cells than in human normal hematopoietic stem cells. […] Other protein kinases such as SYK, BRAF, p38 (p38MAPK), PDGFRα/β, FGFR1, RET, FLT4, Tie2 have also been linked to leukemia. […] (Table 9). The inhibition of the Src-kinase family could be important clinically because these kinases are downstream of FLT3. In the event of FLT3 mutation, the inhibition of the Src-family kinases could still lead to proliferation inhibition.

MV-4-11 = experiment: Proliferation inhibition at single concentration (CellTiter-Blue); format: cell-based; settings: 1 μM compound
HCT116 = experiment: as above; format: cell-based; settings: 1 μM compound
MV4-11 [4] = experiment: Anti-proliferative effects in leukemia panel; format: cell-based
Description: Molm-14 cells were the kind gift of Dr. Mark Levis from Johns Hopkins University. […] Cell lines were grown and maintained according to ATCC recommendations.
(§6) Cell lines were seeded into 96-well plates the afternoon prior to treatment. Approximately 18 hours later, compounds were semi-serially diluted in dimethyl sulfoxide (DMSO) and then growth medium, and added to cells. Plates were incubated for 72 hours prior to addition of Alamar Blue (Life Technologies. Carlsbad, CA). Plates were read after 4 additional hours of incubation at 37° C. using a Bio-Tek Synergy HT plate reader (Bio-Tek, Winooski. VT). Data was analyzed and graphed using GraphPad Prism Software (Graphpad. La Jolla, CA).

MV4-11 [5] = experiment: Activity against AML cell line MV4-11 (CellTiter-Blue, 72 h); format: cell-based; settings: Homo sapiens, MV4-11, 72 h; read-out: IC50 against MV4-11/uM
Description: Cells were added to 96 well plates at 2000 cells per well for adherent lines and 4000 cells per well for suspension lines and kept in an incubator overnight. The following day the plates were treated with compounds to give rise to the final concentrations of; 100 μM, 10 μM, 5 μM 1 μM, 500 nM, 100 nM, 10 nM, […]. The plates were then stored in the incubator for 72 hours. On the third day the cells were assayed with 20 μL of CellTiter—Blue Cell Viability Assay per well and were incubated for 4 hours. After 4 hours' fluorescence intensity was taken on a plate reader: Excitation: 560/10 Emission: 590/10. IC50 analysis was performed on GraphPad Prism 7.

FLT3 phosphorylation = experiment: Western blot in MV4-11; format: cell-based, human
Description: Total protein extracts were prepared using RIPA buffer (SIGMA) supplemented with Complete Mini™ protease inhibitor and PHOStop™ phosphatase inhibitors (Roche). […] The membrane was blocked with 5% dry milk in 1×TBS/0.1% Tween 20 (TBST) for at least 1 h at room temperature and incubated with human specific primary antibodies: FLT3, Phospho-FLT3, c-Myc (Cell Signaling Technologies), KRAS (Santa Cruz), or mouse anti-β-actin (SIGMA) overnight at 4° C. The membrane was washed 3 times in TBST and incubated with a horseradish peroxidase-conjugated secondary anti-rabbit or anti-mouse antibody (Cell Signaling Technologies) for 1 h at room temperature. Blots were again washed and the signal was detected with SuperSignal West Femto Chemiluminescent Substrate (Pierce) and exposed to HyBlot CL® autoradiography film (Denville).

TRKC = TRKC (Homo sapiens (Human), UniProt Q16288); experiment: Reaction Biology HotSpot kinase assay; format: biochemical; settings: 500 nM compound, 100 μM radiolabeled ATP
In short: as §5

c-kit = c-kit (Homo sapiens (Human), UniProt P10721); experiment: Reaction Biology HotSpot kinase assay; format: biochemical; settings: 500 nM compound, 100 μM radiolabeled ATP
In short: as §5

K-562 = experiment: Anti-proliferative effects in leukemia panel; format: cell-based; settings: Homo sapiens, K562
Description: (§7) Molm-14 cells were the kind gift of Dr. Mark Levis from Johns Hopkins University. THP-1, MV4-11, K-562 and MRC-5A cells were purchased from ATCC (ATCC, Manassas, VA). All cell lines were grown in 37° C. with 5% CO2 atmosphere with RPMI 1640 (Life technologies, Carlsbad. CA) supplemented with heat-inactivated 10% (V/V) fetal bovine serum. Cell lines were grown and maintained according to ATCC recommendations.
as §6

MOLM14 [6] = experiment: Anti-proliferative effects in leukemia panel; format: cell-based
Description: as §7, §6

THP-1 = experiment: Anti-proliferative effects in leukemia panel; format: cell-based; settings: Homo sapiens
Description: as §7, §6

STAT5 phosphorylation = experiment: Western blot in MV4-11; format: cell-based, human
Description: Effect of HSW630-1 on protein expression was tested in the MV4-11 leukemia cell line. Total protein extracts were prepared using RIPA buffer (SIGMA) supplemented with Complete Mini™ protease inhibitor and PHOStop™ phosphatase inhibitors (Roche). Equal amounts of proteins (up to 25 μg) were separated on 4-12% NuPAGE gels in 1×MOPS or 1×MES buffer (Invitrogen) and transferred onto PVDF membranes (Millipore). The membrane was blocked with 5% dry milk in 1×TBS/0.1% Tween 20 (TBST) for at least 1 h at room temperature and incubated with human specific primary antibodies: FLT3, Phospho-FLT3, c-Myc (Cell Signaling Technologies), KRAS (Santa Cruz), or mouse anti-β-actin (SIGMA) overnight at 4° C. The membrane was washed 3 times in TBST and incubated with a horseradish peroxidase-conjugated secondary anti-rabbit or anti-mouse antibody (Cell Signaling Technologies) for 1 h at room temperature. Blots were again washed and the signal was detected with SuperSignal West Femto Chemiluminescent Substrate (Pierce) and exposed to HyBlot CL® autoradiography film (Denville).
To determine if the phosphorylation of FLT3, SRC kinase and downstream effectors or kinases (such as STAT3 [44], STAT5 [45] and p-38 [46]) could be affected by the compounds. […] The level of SRC kinase increased over time (amount at the 48 h time point is greater than at the 6 and 24 h time points). Unfortunately the bands for the phosphorylated SRC kinase are blurred despite repeated attempts to get clearer bands. […] From the above Western analyses, it is confirmed that the proliferation inhibition of MV4-11 is due to the inhibition of FLT3 signaling axis.

HL60 = experiment: Anti-proliferative effects in leukemia panel; format: cell-based; settings: Homo sapiens, HL-60
NCI H1703 (NSCLC) = experiment: Activity against lung cancer cell line; format: cell-based
MV4-11 [7] = experiment: In vivo efficacy, NSG mice injected with MV4-11; settings: 25 mg/kg, three times per week, NSG mice with MV4-11
Description: Method: Six week old female NSG mice were injected intravenously with 1×10^6 logarithmically growing MV4-11 cells expressing luciferase (MV4-11). Luciferase expressing leukemia cells were imaged using the IVIS Xenogen system (Perkin Elmer, Waltham MA). On day of imaging, mice are injected IP with 150 mg/kg luciferin (Perkin Elmer, Waltham, MA), anaesthetized and then placed in imaging chamber. Maximal luminescence is recorded and then averaged among each treatment group. Ten days post cell injection, mice were imaged and then sorted into groups so that leukemic burden was similar and dosing started. Mice were dosed either with vehicle (10% DMSO/10% Tween 20/80% saline) or 25 mg/kg of compounds three times per week for the duration of the experiment. Mice were weighed and observed five days per week and imaged once per week.

FLT3 (ITD, F691L) = FLT3 (ITD, F691L) (Homo sapiens, UniProt P36888, F691L/ITD); experiment: DiscoverX Kd Elect binding; settings: read-out: Kd FLT3 (ITD, F691L)
MiaPaca-2 = experiment: IC50 proliferation assay (Alamar Blue, 72 h); format: cell-based; settings: Homo sapiens, MIA PaCa-2; read-out: IC50 MiaPaca-2 (pancreatic cell line)
In short: as §1

HLY-1 = experiment: IC50 proliferation assay (Alamar Blue, 72 h); format: cell-based; settings: read-out: IC50 HLY-1 (lymphoma cell line)
In short: as §1

BTK = BTK (Homo sapiens (Human), UniProt Q06187); experiment: Reaction Biology HotSpot kinase assay; format: biochemical; settings: 500 nM compound; read-out: Percentage kinase inhibition BTK
In short: as §4

Sequence of FLT3 ITD (P36888 whole entry, looked up, change not shown): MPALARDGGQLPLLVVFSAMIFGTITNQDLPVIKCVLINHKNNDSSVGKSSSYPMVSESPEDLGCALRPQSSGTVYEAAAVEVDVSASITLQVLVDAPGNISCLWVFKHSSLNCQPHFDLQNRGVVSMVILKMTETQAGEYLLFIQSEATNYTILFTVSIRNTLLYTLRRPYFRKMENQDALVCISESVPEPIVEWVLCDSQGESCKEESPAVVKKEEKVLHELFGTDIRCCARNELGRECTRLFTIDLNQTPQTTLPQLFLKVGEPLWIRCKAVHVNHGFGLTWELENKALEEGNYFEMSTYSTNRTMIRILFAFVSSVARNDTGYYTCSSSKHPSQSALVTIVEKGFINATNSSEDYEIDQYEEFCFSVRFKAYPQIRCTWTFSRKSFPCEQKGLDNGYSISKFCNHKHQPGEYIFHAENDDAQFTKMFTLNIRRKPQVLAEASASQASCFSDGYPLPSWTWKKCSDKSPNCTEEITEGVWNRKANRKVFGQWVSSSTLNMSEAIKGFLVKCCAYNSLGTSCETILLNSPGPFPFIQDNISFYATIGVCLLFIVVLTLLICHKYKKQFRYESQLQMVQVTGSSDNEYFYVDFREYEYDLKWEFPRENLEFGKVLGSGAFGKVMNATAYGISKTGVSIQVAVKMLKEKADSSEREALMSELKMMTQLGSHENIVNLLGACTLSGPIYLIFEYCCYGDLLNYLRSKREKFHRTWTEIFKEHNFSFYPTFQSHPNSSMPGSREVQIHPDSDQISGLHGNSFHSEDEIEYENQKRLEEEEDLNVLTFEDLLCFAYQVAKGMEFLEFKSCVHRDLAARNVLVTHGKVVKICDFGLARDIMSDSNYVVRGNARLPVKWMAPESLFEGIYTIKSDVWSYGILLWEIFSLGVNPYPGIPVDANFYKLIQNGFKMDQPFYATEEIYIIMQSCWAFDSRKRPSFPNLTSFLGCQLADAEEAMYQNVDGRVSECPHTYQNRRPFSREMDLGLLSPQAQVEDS
Sequence of BTK (Q06187 whole entry): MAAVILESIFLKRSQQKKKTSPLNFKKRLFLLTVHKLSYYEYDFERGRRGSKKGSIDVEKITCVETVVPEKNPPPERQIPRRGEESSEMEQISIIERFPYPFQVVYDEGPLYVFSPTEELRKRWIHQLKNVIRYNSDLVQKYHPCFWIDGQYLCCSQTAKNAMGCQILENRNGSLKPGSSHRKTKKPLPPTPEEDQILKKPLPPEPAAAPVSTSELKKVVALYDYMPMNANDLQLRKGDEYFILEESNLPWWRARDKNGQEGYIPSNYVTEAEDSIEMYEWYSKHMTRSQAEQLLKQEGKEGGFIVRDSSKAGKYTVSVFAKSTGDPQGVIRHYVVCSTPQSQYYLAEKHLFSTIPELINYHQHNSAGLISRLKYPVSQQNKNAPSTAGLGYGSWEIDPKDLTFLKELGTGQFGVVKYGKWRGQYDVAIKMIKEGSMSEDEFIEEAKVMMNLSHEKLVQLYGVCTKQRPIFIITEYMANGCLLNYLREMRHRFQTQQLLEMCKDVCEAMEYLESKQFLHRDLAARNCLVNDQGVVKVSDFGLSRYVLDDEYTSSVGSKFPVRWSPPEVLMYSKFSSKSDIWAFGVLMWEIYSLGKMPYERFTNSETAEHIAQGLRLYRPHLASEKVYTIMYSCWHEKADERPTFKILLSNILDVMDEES
Sequence of c-kit (P10721 26-976): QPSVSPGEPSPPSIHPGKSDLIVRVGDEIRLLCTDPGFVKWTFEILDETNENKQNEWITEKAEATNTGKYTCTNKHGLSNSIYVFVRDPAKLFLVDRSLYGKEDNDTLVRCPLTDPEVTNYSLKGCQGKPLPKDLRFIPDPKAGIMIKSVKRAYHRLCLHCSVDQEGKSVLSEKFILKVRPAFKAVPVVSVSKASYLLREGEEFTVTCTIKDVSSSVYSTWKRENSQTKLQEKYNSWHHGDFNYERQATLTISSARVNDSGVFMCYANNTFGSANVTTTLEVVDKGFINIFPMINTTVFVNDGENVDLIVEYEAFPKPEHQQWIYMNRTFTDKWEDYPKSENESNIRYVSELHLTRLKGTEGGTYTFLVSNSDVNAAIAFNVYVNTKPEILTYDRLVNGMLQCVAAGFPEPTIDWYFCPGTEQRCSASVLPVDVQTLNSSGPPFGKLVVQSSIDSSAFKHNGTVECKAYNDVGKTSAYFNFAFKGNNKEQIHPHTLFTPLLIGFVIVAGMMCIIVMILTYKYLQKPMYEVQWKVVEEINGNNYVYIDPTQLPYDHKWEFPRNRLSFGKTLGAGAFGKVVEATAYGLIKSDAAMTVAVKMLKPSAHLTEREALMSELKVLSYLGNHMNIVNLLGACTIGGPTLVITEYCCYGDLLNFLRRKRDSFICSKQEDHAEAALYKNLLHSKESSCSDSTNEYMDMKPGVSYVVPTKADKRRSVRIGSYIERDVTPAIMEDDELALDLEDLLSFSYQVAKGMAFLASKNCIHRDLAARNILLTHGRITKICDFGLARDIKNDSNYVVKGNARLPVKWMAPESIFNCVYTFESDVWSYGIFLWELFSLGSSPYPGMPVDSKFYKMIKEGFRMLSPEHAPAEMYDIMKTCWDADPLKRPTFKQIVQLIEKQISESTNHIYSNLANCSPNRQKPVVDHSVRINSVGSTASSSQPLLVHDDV
Sequence of TRKC (Q16288 32-839): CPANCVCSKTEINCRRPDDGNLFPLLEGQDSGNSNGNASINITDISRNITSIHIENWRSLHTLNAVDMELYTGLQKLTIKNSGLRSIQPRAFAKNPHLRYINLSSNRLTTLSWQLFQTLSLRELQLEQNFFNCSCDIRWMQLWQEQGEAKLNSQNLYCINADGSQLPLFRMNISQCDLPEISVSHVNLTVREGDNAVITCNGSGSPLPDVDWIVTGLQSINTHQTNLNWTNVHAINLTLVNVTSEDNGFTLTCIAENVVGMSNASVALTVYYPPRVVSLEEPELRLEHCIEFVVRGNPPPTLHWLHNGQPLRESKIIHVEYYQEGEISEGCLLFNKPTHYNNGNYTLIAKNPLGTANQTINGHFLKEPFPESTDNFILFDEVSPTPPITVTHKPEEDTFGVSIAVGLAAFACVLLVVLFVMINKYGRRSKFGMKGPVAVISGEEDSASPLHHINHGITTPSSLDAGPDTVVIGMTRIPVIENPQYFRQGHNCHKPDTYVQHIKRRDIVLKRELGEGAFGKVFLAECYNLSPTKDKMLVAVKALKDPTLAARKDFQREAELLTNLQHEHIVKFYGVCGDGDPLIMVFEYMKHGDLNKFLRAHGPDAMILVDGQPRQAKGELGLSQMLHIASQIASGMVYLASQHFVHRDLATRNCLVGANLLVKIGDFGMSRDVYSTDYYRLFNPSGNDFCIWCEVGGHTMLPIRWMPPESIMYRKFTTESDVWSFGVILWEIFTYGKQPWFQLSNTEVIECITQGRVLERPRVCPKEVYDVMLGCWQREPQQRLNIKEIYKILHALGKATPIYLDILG
Sequence of c-Src (P12931 whole entry, looked up): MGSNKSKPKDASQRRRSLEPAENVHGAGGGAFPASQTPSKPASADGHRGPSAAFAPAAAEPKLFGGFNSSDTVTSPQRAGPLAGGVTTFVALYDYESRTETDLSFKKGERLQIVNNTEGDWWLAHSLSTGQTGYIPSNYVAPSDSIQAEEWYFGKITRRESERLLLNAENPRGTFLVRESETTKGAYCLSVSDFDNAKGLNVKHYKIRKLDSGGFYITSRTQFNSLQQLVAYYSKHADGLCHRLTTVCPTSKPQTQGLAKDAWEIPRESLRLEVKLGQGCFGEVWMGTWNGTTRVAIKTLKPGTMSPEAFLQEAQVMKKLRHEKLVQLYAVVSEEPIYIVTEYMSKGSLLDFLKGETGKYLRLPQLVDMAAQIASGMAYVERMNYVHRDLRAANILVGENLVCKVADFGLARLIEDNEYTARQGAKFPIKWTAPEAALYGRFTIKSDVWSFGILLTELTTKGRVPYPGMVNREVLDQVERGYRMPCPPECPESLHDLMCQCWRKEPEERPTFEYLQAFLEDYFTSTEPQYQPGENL
Sequence of FLT3 (P36888 27-993): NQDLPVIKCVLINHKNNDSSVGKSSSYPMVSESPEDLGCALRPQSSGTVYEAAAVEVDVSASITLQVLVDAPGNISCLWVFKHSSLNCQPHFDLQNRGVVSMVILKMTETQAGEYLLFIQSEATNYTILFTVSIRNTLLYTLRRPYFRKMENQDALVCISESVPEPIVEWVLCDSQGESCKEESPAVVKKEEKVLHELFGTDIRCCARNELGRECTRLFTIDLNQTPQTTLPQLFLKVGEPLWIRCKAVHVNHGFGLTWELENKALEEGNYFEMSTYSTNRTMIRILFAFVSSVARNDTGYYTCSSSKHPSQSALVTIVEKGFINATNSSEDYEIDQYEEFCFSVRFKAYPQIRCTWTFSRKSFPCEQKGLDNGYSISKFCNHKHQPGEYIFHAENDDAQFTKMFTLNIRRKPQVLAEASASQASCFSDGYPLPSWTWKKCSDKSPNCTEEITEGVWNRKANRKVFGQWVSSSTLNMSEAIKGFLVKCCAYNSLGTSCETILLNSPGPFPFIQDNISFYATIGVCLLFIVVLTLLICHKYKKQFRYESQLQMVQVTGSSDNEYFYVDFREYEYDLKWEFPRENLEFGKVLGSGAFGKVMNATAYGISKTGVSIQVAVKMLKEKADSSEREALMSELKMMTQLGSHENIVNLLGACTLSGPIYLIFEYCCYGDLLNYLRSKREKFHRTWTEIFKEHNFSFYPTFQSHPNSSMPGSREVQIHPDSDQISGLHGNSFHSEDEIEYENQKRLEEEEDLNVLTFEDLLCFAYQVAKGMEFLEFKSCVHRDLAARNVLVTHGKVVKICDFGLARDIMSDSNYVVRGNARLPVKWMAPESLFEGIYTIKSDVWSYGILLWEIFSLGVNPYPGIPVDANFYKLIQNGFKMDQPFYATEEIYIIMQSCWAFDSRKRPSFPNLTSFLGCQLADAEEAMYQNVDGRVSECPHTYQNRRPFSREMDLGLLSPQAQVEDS
Sequence of FLT3 (ITD, F691L) (P36888 whole entry, looked up, stated change not applied): as the sequence (P36888 whole entry, looked up, change not shown) above

IC50 (K562; 72 h, read-out: IC50 (proliferation inhibition) Cell line - K562): 1440 nM
IC50 (K562; Table 18, read-out: Inhibition of proliferation of K562 cell lines (CML)): 1443 ± 0.21 nM
IC50 (MV4-11 [1]; 72 h): 171 nM
Kd (FLT3 ITD): 450 nM
IC50 (MOLM14 [2]): 187 ± 5.5 nM
IC50 (MV4-11 [3]): 144 ± 2.6 nM
Percentage kinase inhibition RET (RET): 0%
Percentage kinase inhibition c-Src (c-Src): 1%
Percentage kinase inhibition FGFR1 (FGFR1): 3%
Kd (FLT3): 53 nM
SMILES: Cc1ccc(C(=O)NCC(O)CN(C)C)cc1C#Cc1c(N)ncc2ccc(Cl)cc12 (stereo not drawn) [HSN178]
Percent inhibition of proliferation HeLa (HeLa): 100%
Percent inhibition of proliferation MCF-7 (MCF-7): 100%
proliferation inhibition in words, MV4-11 / AML (MV4-11 [3]): only moderate inhibitors
Percent inhibition of proliferation MV-4-11 (MV-4-11): 98%
Percent inhibition of proliferation HCT116 (HCT116): 97%

SMILES: Nc1ncc2ccc(Cl)cc2c1C#Cc1ccc(C2=NCCN2)cc1 [HSM1651, 6-chloro-4-((4-(4,5-dihydro-1H-imidazol-2-yl)phenyl)ethynyl)isoquinolin-3-amine]
anti-proliferative activity in words, MV4-11 / AML cell lines (MV4-11 [4]): good inhibitor
IC50 (MV4-11 [4]; Homo sapiens, MV4-11, read-out: Anti-proliferative effects in leukemia panel (μM) MV4-11): 0.05 ± 0.01 µM
IC50 (MV4-11 [5]): 0.008 µM
FLT3 phosphorylation (Western) (FLT3 phosphorylation): reduced
inhibition at 0.5 µM (TRKC): 64%
inhibition at 0.5 µM (c-kit): 83%
IC50 (K-562): 1.39 µM
anti-proliferative activity in words, MOLM-14 (MOLM14 [6]): good inhibitor
IC50 (MOLM14 [6]; Homo sapiens, MOLM-14): 0.11 µM
IC50 (THP-1): 1.85 µM
STAT5 phosphorylation (Western) (STAT5 phosphorylation): reduced
IC50 (HL60): 3.05 µM

SMILES: Cc1ncc(C(=O)Nc2ccc(CN3CCN(C)CC3)c(C(F)(F)F)c2)cc1C#Cc1c(N)ncc2ccc(F)cc12 [HSN431]
Kd (FLT3 ITD): 4.8 nM
IC50 (MV4-11 [3]): < 1 nM
IC50 (NCI H1703 (NSCLC)): 247 nM
in-vivo efficacy (survival) (MV4-11 [7]): efficacious
Kd (FLT3 (ITD, F691L)): 57 nM

IC50 (MiaPaca-2): 400 nM
IC50 (MV4-11 [1]; Homo sapiens, MV4-11, 72 h): 25 nM
inhibition at 0.5 µM (BTK): 70%
SMILES: CC1(C)CNC(c2ccc(C#Cc3cc(N)nc4ccccc34)cc2F)=N1 [HSM1856, 4-((4-(4,4-dimethyl-4,5-dihydro-1H-imidazol-2-yl)-3-fluorophenyl)ethynyl)quinolin-2-amine]
IC50 (HLY-1): 80 nM
